Results: US9481688B2, “(Thieno[2,3-b][1,5]benzoxazepin-4-yl)piperazin-1-yl compounds as dual activity H1 inverse agonists/5-HT2A antagonists” (Eli Lilly and Company, priority 2011, dated 2016)
Where a name gives a salt, the structure may show the parent alone.

Tests used:
[1] = target: 5-HT5 (Homo sapiens (Human), UniProt P47898); experiment: 5-HT5 binding
Description: (§1) Further, the compounds of the invention may be tested in binding assays and functional activity assays by well known methods for other physiologically important receptors such as, but not limited to, the hERG channel, other serotonin receptors (specifically 5-HT1B, 5-HT1D, receptors, lack of agonist activity at 5-HT2B receptors, 5-HT2C, 5-HT5, 5-HT6, and 5-HT7 receptors), dopaminergic receptors (specifically D1, D2, and D3), GABAA receptors, adrenergic receptors and monoamine transporters.

[2] = target: 5-HT2A Receptor (Rattus norvegicus (Rat), UniProt P14842); experiment: 5-HT2A receptor occupancy in vivo (MDL 100907 tracer); conditions: oral gavage, 1 hr. before tracer
Description: J Neurosci Methods. […] Recording Environment. […] Relative humidity averages approximately 50%. […] Study Design and Dosing. […] Data Collection. […] Statistical Analysis.

[3] = target: recombinant 5-HT2C receptor (human) (Homo sapiens (Human), UniProt P28335); experiment: 5-HT2C competition binding assay ([125I]-DOI, SPA); conditions: dihydrochloride
Description: [^125I]-(±)DOI binding experiments are carried out in SPA 96-well format. Membranes used in this assay are prepared from AV-12 cells stably expressing recombinant 5-HT2C receptor (human). The incubation is initiated by the addition of a mixture of WGA PVT SPA beads (0.5 mg/well, Perkin Elmer (MA, USA), RPNQ0001) and 2.5 μg membranes to assay buffer (50 mM Tris-HCl, 10 mM MgCl2, 0.5 mM EDTA, 10 μM pargyline, 0.1% ascorbic acid, pH7.4) containing 0.2 nM [[^125I]-(±)DOI and varying concentrations of the test compound (10 point concentration response curves). Non-specific binding is determined in the presence of 20 μM 1-(1-Naphthyl) piperazine. Samples are incubated for 4 hr. at room temperature (22° C.) and then read in a Microbeta Trilux.
Curves are evaluated using a 4-parameter logistic nonlinear equation to obtain the concentration of competitor causing 50% inhibition of radioligand binding (IC50). Equilibrium dissociation constants (Ki) are calculated according to the equation Ki=IC50/(1+L/Kd), where L equals the concentration of radioligand used in the experiment and Kd equals the equilibrium dissociation constant of the radioligand for the receptor, determined from standard saturation analysis or homologous competition experiments. […]

[4] = target: hERG channel (Homo sapiens (Human), UniProt Q12809); experiment: hERG channel assay
Description: as §1

[5] = target: Adrenergic alpha2A (Homo sapiens (Human), UniProt P08913); experiment: Adrenergic alpha2A binding
Description: as §1

5-HT5, sequence (P47898 whole entry, species assumed): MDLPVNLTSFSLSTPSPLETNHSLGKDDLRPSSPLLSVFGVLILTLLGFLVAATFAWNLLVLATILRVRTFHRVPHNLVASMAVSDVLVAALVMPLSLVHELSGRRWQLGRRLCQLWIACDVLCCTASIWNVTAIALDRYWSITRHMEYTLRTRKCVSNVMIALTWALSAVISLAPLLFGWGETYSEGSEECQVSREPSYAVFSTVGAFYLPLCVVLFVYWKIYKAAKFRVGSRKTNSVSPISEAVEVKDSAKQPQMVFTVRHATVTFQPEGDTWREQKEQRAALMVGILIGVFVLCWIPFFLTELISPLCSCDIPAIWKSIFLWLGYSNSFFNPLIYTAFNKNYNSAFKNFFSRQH
Adrenergic alpha2A, sequence (P08913 whole entry): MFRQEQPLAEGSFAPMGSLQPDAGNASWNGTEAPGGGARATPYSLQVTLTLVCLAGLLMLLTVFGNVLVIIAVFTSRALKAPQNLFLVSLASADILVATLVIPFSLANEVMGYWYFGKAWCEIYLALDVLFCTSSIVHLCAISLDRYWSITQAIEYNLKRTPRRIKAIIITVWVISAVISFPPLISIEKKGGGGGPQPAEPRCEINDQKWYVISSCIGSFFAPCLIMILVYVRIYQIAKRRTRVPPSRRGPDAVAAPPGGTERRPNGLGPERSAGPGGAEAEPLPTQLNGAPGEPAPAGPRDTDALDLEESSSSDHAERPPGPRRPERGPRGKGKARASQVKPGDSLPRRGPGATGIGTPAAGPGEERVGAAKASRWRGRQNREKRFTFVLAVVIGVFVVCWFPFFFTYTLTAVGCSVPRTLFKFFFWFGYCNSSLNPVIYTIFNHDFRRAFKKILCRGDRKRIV
hERG channel, sequence (Q12809 whole entry): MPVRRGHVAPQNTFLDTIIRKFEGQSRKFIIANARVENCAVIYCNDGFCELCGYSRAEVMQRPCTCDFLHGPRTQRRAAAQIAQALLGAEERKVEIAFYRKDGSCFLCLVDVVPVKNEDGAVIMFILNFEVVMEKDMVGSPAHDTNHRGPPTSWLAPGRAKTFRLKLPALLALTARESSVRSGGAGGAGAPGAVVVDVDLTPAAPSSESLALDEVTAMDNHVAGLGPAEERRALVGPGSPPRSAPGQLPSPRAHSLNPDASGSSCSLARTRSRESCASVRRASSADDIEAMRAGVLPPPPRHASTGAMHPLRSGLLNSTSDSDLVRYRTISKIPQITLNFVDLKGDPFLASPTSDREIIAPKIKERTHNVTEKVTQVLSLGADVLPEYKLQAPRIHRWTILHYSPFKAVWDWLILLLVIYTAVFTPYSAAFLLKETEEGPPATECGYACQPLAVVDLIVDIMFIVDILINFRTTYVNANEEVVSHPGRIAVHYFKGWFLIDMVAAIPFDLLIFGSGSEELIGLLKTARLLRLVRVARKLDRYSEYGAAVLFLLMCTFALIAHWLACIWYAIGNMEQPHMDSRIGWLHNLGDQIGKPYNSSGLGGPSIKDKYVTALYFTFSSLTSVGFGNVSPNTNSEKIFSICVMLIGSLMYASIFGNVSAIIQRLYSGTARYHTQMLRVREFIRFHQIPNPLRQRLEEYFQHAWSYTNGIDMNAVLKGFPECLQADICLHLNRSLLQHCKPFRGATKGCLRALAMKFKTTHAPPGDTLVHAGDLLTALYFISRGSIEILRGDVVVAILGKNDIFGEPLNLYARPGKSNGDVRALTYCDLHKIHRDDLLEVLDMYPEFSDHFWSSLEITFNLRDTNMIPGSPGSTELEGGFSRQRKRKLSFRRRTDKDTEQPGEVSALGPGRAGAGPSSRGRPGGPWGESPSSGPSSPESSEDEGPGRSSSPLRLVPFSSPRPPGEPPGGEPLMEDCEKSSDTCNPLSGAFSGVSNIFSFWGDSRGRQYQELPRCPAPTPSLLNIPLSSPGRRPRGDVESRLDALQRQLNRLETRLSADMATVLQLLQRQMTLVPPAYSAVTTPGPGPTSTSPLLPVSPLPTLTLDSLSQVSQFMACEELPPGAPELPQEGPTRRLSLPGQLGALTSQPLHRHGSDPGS
recombinant 5-HT2C receptor (human), sequence (P28335 whole entry, looked up): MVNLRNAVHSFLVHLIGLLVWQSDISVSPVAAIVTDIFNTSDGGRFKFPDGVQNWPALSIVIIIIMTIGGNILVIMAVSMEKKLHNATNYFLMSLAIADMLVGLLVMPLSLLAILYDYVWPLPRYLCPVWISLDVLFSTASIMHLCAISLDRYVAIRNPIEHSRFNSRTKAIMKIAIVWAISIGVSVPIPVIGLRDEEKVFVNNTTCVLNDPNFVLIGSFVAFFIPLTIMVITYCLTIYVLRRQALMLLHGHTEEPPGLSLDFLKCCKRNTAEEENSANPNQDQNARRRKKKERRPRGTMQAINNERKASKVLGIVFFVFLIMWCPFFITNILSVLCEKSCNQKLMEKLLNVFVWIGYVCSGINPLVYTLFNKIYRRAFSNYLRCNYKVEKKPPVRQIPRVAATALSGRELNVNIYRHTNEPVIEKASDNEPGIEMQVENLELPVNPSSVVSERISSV

SMILES: Cc1ccc2c(c1)Oc1sc(Cl)cc1C(N1CCN(CC(C)(C)C(=O)O)CC1)=N2 [Example 3, 3-[4-(2-chloro-8-methyl-thieno[2,3-b][1,5]benzoxazepin-4-yl)piperazin-1-yl]-2,2-dimethyl-propanoic acid dihydrochloride]
- Ki [1]: > 8.81 µM
- ED50 [2]: 0.09 mg/kg
- Ki [3]: 0.328 µM
- hERG Channel [4]: >100 µM
- Ki [5]: > 8.99 µM
